Among the data in US9822069B2, “Urea derivative or pharmacologically acceptable salt thereof” (KYORIN PHARMACEUTICAL CO. LTD., priority 2013, dated 2017) are EC50 values, retold here.

In this assay the target is T1, human FPRL1 (Homo sapiens, UniProt P25090).
T1 construct: expressed in transfected cells; host or cells: HEK293 (JCRB9068, NIBIO), transient transfection with pCMV-script vectors using Lipofectamine 2000
T1 sequence (P25090 1-351): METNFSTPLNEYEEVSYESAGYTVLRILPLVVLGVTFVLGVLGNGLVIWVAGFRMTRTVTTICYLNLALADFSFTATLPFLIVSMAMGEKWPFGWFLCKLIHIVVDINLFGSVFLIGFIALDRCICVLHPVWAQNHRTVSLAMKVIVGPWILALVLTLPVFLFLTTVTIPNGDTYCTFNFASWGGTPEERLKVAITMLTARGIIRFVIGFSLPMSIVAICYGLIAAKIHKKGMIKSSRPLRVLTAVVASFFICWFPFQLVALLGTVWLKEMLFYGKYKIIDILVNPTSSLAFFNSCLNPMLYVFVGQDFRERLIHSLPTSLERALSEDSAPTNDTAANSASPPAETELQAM
The assay can be described thus: Measurement test of agonist activity on human FPRL1 (test of calcium mobilization in cell, HEK293 with human FPRL1 and Gα15 expression vectors). The assay is classed as cell-based. The note with it: calcium mobilization in HEK293 cells with human FPRL1 and Gα15 expression vectors. An excerpt: Measurement Test of Agonist Activity on Human FPRL1
(1-1) Construction of Human FPRL1 Expression Vector
Human FPRL (SEQ ID NO: 3) was amplified in a PCR reaction from cDNA derived from a monocytic leukemia cell line THP-1 (TIB-202, ATCC) as a template using a forward primer shown in SEQ ID NO: 1, a reverse primer shown in SEQ ID NO: 2, and KOD-plus-ver. 2 (KOD-211, TOYOBO CO., LTD.). The amplified PCR product and pCMV-script vector (212220, STRATAGENE) were digested with Hind III (1060A, Takara Bio Inc.) and XhoI (1094A, Takara Bio Inc.), and the resultant digest was ligated with Ligation high ver. 2 (LGK-201, TOYOBO CO., LTD.). The ligation product was transformed into DH5α (DNA-901, TOYOBO CO., LTD.), cultured on a 100 μg/mL kanamycin-containing LB medium, and purified with HiSpeed Plasmid Maxi Kit (12662, QIAGEN).
(1-2) Construction of Human Gα15 Expression Vector
Human Gα15 (SEQ ID NO: 6) was amplified in a PCR reaction from cDNA derived from a myeloid leukemia cell line HL-60 (CCL-240, ATCC) as a template using a forward primer shown in SEQ ID NO: 4, a reverse primer shown in SEQ ID NO: 5, and KOD-plus-ver. 2. The amplified PCR product and pCMV-script vector were digested with Hind III and XhoI, and the resultant digest was ligated with Ligation high ver. 2. The ligation product was transformed into DH5α, cultured on a 100 μg/mL kanamycin-containing LB medium, and purified with HiSpeed Plasmid Maxi Kit.
(2-1) Method for Culturing and Subculturing HEK293
HEK293 (JCRB9068, NIBIO) was cultured in an incubator at 5% CO2 and 37° C. using DMEM (11885-092, GIBCO) containing 10% FBS and 1× Penicillin-Streptomycin (15140-122, GIBCO). Subculture was carried out as followings: The cells that reached 80 to 90% confluency were washed with PBS(−), separated using 0.25% Trypsin-EDTA (25200-072, GIBCO), centrifuged, re-suspended in a fresh medium, and then seeded in Collagen Type 1 Coated dish (4020-010, IWAKI) at a split ratio of 1:8 (cultured for 3 days).
(2-2) Introduction of Human FPRL1 and Gα15 Expression Vectors
HEK293 that reached 80 to 90% confluency was washed with PBS(−), separated using 0.25% Trypsin-EDTA, centrifuged, and re-suspended in a fresh medium excluding 1× Penicillin-Streptomycin. The cells were inoculated in a Collagen Type 1 coated 6-well plate (4810-010, IWAKI) to 5×10^5 cells/2.5 mL/well and cultured overnight. On the next day, human FPRL1 and Gα15 expression vectors were introduced using Lipofectamine 2000 transfection reagent (11668-019, Life technologies). First, the human FPRL1 and Gα15 expression vectors were diluted with Opti-MEM I Reduced Serum Medium (31985-070, GIBCO) to 2 μg/250 μL/well and Lipofectamine 2000 transfection reagent was diluted with Opti-MEM I Reduced Serum Medium to be 4 μL/250 μL/well. The vectors and reagent were softly diffused, and incubated at room temperature for 5 minutes. The vector solution was mixed with Lipofectamine 2000 transfection reagent in equal amounts. In order to form a composite of the vectors and Lipofectamine 2000 transfection reagent, the mixture was incubated at room temperature for 20 minutes, and added at 500 μL/well to the medium of inoculated cells. The treated cells were cultured for 24 hours, inoculated in Poly-D-Lysine coated 96-well plate (356640, BD Biosciences) at a cell density of 7×10^4 cells/100 μL/well, and cultured for another 24 hours. The resultant cells were used in a measurement test of calcium mobilization in the cells.
(3) Evaluation of Agonist Activity on Human FPRL1 (Test of Calcium Mobilization in Cell)
An appropriate amount of each test compound was first weighed, and dissolved to 10^−2 M by addition of dimethyl sulfoxide (DMSO). […]
On the technique in general: Calcium flux is commonly read through the fluorescence of an indicator in the cells.
As for `COc1cc(F)c([C@@H]2CN(CCO)C(=O)[C@H]2NC(=O)Nc2ccc(C)cc2)c(F)c1` (relative stereo) [Example 24-7, (−)-1-[(3S*,4R*)-4-(2,6-difluoro-4-methoxyphenyl)-1-(2-hydroxyethyl)-2-oxopyrrolidin-3-yl]-3-(p-tolyl)urea], the EC50 – broadly, the concentration at which the effect is half-maximal – was determined as 0.69 nM.

In the case of `COc1cc(F)c([C@@H]2CN(CCO)C(=O)[C@H]2NC(=O)Nc2ccc(C#N)cc2)c(F)c1` (relative stereo) [Example 24-8, (−)-1-(4-cyanophenyl)-3-[(3S*,4R*)-4-(2,6-difluoro-4-methoxyphenyl)-1-(2-hydroxyethyl)-2-oxopyrrolidin-3-yl]urea], the EC50 stood at 0.39 nM.

For the molecule `COc1cc(F)c([C@@H]2CN(CCO)C(=O)[C@H]2NC(=O)Nc2ccc(Cl)nc2)c(F)c1` (relative stereo) [Example 24-9, (−)-1-(6-chloropyridin-3-yl)-3-[(3S*,4R*)-4-(2,6-difluoro-4-methoxyphenyl)-1-(2-hydroxyethyl)-2-oxopyrrolidin-3-yl]urea], the EC50 is 0.88 nM.

Turning to `COc1cc(F)c([C@@H]2CN(CCO)C(=O)[C@H]2NC(=O)Nc2cc3ccccc3s2)c(F)c1` (relative stereo) [Example 24-10, (−)-1-(benzo[b]thiophen-2-yl)-3-[(3S*,4R*)-4-(2,6-difluoro-4-methoxyphenyl)-1-(2-hydroxyethyl)-2-oxopyrrolidin-3-yl]urea], the EC50 turned out to be 1 nM.

As to `CCCN1C[C@@H](c2c(F)cc(OC)cc2F)[C@H](NC(=O)Nc2ccc(F)cc2)C1=O` (relative stereo) [Example 24-11, (−)-1-[(3S*,4R*)-4-(2,6-difluoro-4-methoxyphenyl)-2-oxo-1-propylpyrrolidin-3-yl]-3-(4-fluorophenyl)urea], the EC50 was 0.06 nM.

Consider `COc1cc(F)c([C@@H]2CN(Cc3ccccc3)C(=O)[C@H]2NC(=O)Nc2ccc(F)cc2)c(F)c1` (relative stereo) [Example 24-12, (−)-1-[(3S*,4R*)-1-benzyl-4-(2,6-difluoro-4-methoxyphenyl)-2-oxopyrrolidin-3-yl]-3-(4-fluorophenyl)urea], for which the EC50 worked out at 2.2 nM.

As for `COc1cc(F)c([C@@H]2CN(Cc3cccnc3)C(=O)[C@H]2NC(=O)Nc2ccc(F)cc2)c(F)c1` (relative stereo) [Example 24-13, (−)-1-[(3S*,4R*)-4-(2,6-difluoro-4-methoxyphenyl)-2-oxo-1-(pyridin-3-ylmethyl)pyrrolidin-3-yl]-3-(4-fluorophenyl)urea], the EC50 was found to be 0.11 nM.

As to `COc1cc(F)c([C@@H]2CN(CS(C)(=O)=O)C(=O)[C@H]2NC(=O)Nc2ccc(F)cc2)c(F)c1` (relative stereo) [Example 24-14, (−)-1-{(3S*,4R*)-4-(2,6-difluoro-4-methoxyphenyl)-1-[(methylsulfonyl)methyl]-2-oxopyrrolidin-3-yl}-3-(4-fluorophenyl)urea], the EC50 came to 0.12 nM.

In the case of `COc1cc(F)c([C@@H]2CN(CS(N)(=O)=O)C(=O)[C@H]2NC(=O)Nc2ccc(F)cc2)c(F)c1` (relative stereo) [Example 24-15, (−)-{(3S*,4R*)-4-(2,6-difluoro-4-methoxyphenyl)-3-[3-(4-fluorophenyl)ureido]-2-oxopyrrolidin-1-yl}methanesulfonamide], the EC50 was determined as 0.03 nM.

With `COc1ccc([C@@H]2CNC(=O)[C@H]2NC(=O)Nc2ccc(F)c(F)c2)cc1` (single isomer, unassigned) [EXAMPLE 1-3, (-)-1-(3,4-difluorophenyl)-3-[(3S*,4R*)-4-(4-methoxyphenyl)-2-oxopyrrolidin-3-yl]urea], the EC50 was 2.57 nM.

On to `COc1ccc([C@@H]2CNC(=O)[C@H]2NC(=O)Nc2ccc(C#N)cc2)cc1` (single isomer, unassigned) [EXAMPLE 1-5, (−)-1-(4-cyanophenyl)-3-[(3S*,4R*)-4-(4-methoxyphenyl)-2-oxopyrrolidin-3-yl]urea], for which the EC50 came to 2.88 nM.

For `COc1ccc([C@@H]2CN(C)C(=O)[C@H]2NC(=O)Nc2ccc(Cl)cc2)cc1` (single isomer, unassigned) [EXAMPLE 1-6, (−)-1-(4-chlorophenyl)-3-[(3S*,4R*)-4-(4-methoxyphenyl)-1-methyl-2-oxopyrrolidin-3-yl]urea], the EC50 amounted to 0.2 nM.

Regarding `COc1ccc([C@@H]2CNC(=O)[C@H]2NC(=O)Nc2ccc(F)cc2)cc1F` (single isomer, unassigned) [EXAMPLE 1-8, (−)-1-[(3S*,4R*)-4-(3-fluoro-4-methoxyphenyl)-2-oxopyrrolidin-3-yl]-3-(4-fluorophenyl)urea], the EC50 is 0.9 nM.

In the case of `COc1ccc([C@@H]2CNC(=O)[C@H]2NC(=O)Nc2ccc(F)cc2)c(C)c1` (single isomer, unassigned) [EXAMPLE 1-11, (−)-1-(4-fluorophenyl)-3-[(3S*,4R*)-4-(4-methoxy-2-methylphenyl)-2-oxopyrrolidin-3-yl]urea], the EC50 was 1.59 nM.

With `COc1cc(F)c([C@@H]2CNC(=O)[C@H]2NC(=O)Nc2ccc(F)cc2)cc1F` (single isomer, unassigned) [EXAMPLE 1-13, (−)-1-[(3S*,4R*)-4-(2,5-difluoro-4-methoxyphenyl)-2-oxopyrrolidin-3-yl]-3-(4-fluorophenyl)urea], the EC50 turned out to be 0.15 nM.

`COc1c(F)cc([C@@H]2CNC(=O)[C@H]2NC(=O)Nc2ccc(F)cc2)cc1F` (single isomer, unassigned) [EXAMPLE 1-14, (−)-1-[(3S*,4R*)-4-(3,5-difluoro-4-methoxyphenyl)-2-oxopyrrolidin-3-yl]-3-(4-fluorophenyl)urea]: the EC50 is 4.12 nM.

Take `COc1ccc([C@@H]2CNC(=O)[C@H]2NC(=O)Nc2ccc(F)cc2)s1` (single isomer, unassigned) [EXAMPLE 1-19, (−)-1-(4-fluorophenyl)-3-[(3S*,4R*)-4-(5-methoxythiophen-2-yl)-2-oxopyrrolidin-3-yl]urea]: the EC50 was found to be 0.72 nM.

`CSc1ccc([C@@H]2CNC(=O)[C@H]2NC(=O)Nc2ccc(F)cc2)cc1` (single isomer, unassigned) [EXAMPLE 1-20, (−)-1-(4-fluorophenyl)-3-[(3S*,4R*)-4-(4-methylthiophenyl)-2-oxopyrrolidin-3-yl]urea]: the EC50 amounted to 1.75 nM.

Turning to `COc1ccc(NC(=O)N[C@@H]2C(=O)NC[C@H]2c2c(F)cc(OC)cc2F)cc1` (single isomer, unassigned) [EXAMPLE 1-24, (−)-1-[(3S*,4R*)-4-(2,6-difluoro-4-methoxyphenyl)-2-oxopyrrolidin-3-yl]-3-(4-methoxyphenyl)urea], the EC50 was determined as 3.2 nM.

For the molecule `CCOC(=O)CN1C[C@@H](c2c(F)cc(OC)cc2F)[C@H](NC(=O)Nc2ccc(F)cc2)C1=O` (single isomer, unassigned) [EXAMPLE 24-16, (−)-2-{(3S*,4R*)-4-(2,6-difluoro-4-methoxyphenyl)-3-[3-(4-fluorophenyl)ureido]-2-oxopyrrolidin-1-yl}acetic acid ethyl ester], the EC50 was 0.15 nM.
